One block for each compound: values may come before it.
Tests used:
NLRP3 inflammasome [1] = molecular target: NLRP3 inflammasome (Mus musculus, UniProt Q8R4B8); settings: IL-1β release, LPS/ATP
AD animal models = settings: cited from earlier work
[2] = earlier work of the authors; cited from earlier work
NLRC4 inflammasome = NLRC4 inflammasome (Mus musculus, UniProt Q3UP24); experiment: Inhibition of NLRC4 inflammasome; assay type: cell-based; settings: LPS 1 μg/mL, flagellin 1 μg/mL 6 h; 1 at 3 and 10 μM, 8 at 10 μM
AIM2 inflammasome = molecular target: T1, AIM2 inflammasome (Mus musculus, UniProt Q91VJ1); experiment: Inhibition of AIM2 inflammasome; assay type: cell-based; settings: LPS 1 μg/mL, poly(dA:dT) 4 μg/mL 4 h; 1 at 3 and 10 μM, 8 at 10 μM
T1 sequence (Q91VJ1 1-354): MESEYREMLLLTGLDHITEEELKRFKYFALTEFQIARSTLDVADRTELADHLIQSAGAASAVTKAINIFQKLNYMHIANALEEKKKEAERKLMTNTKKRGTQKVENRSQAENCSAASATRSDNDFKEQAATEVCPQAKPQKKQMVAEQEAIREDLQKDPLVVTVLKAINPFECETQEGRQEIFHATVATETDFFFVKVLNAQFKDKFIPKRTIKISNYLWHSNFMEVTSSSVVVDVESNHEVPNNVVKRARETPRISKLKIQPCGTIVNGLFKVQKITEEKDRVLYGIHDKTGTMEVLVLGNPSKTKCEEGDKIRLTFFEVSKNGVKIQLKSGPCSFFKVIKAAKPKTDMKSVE

[3] = molecular target: human recombinant NLRP3 protein; settings: cited from earlier work
NLRP3 inflammasome [4] = settings: read-out: IC50 (potency as NLRP3 inhibitor); cited from earlier work
priming by LPS (TNF-α) = experiment: LPS priming step, TNF-α in J774A.1 culture media by ELISA; assay type: cell-based, mouse; settings: concentrations ≤ 3 μM

NLRP3 inflammasome (Mus musculus, UniProt Q8R4B8), sequence (Q8R4B8 whole entry): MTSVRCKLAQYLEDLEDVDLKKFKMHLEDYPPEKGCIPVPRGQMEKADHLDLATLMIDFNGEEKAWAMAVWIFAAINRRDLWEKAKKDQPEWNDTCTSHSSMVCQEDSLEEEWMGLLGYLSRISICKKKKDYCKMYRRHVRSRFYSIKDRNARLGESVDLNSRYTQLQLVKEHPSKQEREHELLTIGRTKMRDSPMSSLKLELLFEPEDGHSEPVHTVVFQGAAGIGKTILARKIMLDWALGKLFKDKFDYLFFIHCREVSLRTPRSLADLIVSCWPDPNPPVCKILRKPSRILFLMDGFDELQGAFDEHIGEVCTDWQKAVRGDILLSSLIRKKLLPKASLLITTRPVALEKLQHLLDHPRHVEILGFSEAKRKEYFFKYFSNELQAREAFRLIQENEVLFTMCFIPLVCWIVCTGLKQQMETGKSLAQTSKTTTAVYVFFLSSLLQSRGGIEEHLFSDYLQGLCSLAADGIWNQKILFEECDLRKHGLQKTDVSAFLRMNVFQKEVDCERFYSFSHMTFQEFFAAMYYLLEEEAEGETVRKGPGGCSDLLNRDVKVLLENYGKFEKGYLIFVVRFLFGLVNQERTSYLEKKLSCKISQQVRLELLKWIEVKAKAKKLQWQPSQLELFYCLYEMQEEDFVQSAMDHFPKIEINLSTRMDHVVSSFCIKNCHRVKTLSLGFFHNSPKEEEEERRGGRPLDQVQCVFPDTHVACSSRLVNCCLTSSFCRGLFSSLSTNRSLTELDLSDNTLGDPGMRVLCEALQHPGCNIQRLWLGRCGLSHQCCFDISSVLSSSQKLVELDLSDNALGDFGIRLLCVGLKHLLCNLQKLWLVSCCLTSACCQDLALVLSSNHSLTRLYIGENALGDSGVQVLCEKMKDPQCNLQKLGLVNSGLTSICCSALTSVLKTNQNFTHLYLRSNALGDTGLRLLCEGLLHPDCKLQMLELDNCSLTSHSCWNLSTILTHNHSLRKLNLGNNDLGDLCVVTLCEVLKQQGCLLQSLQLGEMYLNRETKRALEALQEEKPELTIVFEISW
NLRC4 inflammasome, sequence (Q3UP24 whole entry): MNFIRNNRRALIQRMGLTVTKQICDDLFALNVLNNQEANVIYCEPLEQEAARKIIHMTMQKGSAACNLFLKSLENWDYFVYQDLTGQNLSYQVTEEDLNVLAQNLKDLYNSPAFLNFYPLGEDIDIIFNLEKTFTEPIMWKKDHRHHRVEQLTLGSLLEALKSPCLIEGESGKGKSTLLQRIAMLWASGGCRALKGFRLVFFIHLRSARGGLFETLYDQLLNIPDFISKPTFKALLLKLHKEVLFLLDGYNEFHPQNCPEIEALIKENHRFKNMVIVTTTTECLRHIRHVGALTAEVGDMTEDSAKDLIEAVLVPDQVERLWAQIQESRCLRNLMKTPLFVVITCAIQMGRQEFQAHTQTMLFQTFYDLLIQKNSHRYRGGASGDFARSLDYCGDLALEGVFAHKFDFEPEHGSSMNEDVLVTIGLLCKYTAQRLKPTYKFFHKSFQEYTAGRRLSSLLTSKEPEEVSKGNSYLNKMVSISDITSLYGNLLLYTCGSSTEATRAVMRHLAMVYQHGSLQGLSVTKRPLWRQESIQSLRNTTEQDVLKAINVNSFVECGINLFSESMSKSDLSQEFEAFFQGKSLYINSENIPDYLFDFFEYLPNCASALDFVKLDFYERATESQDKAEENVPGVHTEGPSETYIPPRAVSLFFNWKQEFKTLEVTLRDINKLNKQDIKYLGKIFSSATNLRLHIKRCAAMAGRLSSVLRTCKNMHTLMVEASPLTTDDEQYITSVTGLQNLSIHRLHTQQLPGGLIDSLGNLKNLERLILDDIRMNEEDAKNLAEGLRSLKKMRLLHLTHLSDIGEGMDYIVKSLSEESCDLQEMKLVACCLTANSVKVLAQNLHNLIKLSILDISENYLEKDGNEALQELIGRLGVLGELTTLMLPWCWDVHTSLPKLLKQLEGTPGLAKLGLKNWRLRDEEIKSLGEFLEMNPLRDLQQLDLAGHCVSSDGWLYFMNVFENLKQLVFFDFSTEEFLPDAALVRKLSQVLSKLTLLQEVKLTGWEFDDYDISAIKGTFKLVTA

inhibitory potency compared to 8 (NLRP3 inflammasome [1]): decrease of inhibitory potency
Compound: COC(=O)c1cccc(-c2cn(Cc3cc(Cl)ccc3OC)nn2)c1 [Compound 11, Methyl 3-(1-(5-chloro-2-methoxybenzyl)-1H-1,2,3-triazol-4-yl)benzoate]

inhibitory potency compared to 8 (NLRP3 inflammasome [1]): decreased inhibitory potency
Compound: COc1ccc(Cl)cc1Cn1cc(-c2ccc(C(=O)N3CCC3)cc2)nn1 [Compound 14, Azetidin-1-yl(4-(1-(5-chloro-2-methoxybenzyl)-1H-1,2,3-triazol-4-yl)phenyl)methanone]

decrease in inhibitory potency compared to 8 (NLRP3 inflammasome [1]): 2–3 fold
Compound: COC(=O)c1ccc(-c2cn(Cc3cc(F)ccc3OC)nn2)cc1 [Compound 32, Methyl 4-(1-(5-fluoro-2-methoxybenzyl)-1H-1,2,3-triazol-4-yl)benzoate]

inhibitory potency compared to 8 (NLRP3 inflammasome [1]): comparable potency
Compound: COC(=O)c1ccc(-c2cn(Cc3cc(Cl)cc(OC)c3)nn2)cc1 [Compound 28, Methyl 4-(1-(3-chloro-5-methoxybenzyl)-1H-1,2,3-triazol-4-yl)benzoate]

Compound: COC(=O)c1ccc(-c2cn(Cc3cccc(Cl)c3)nn2)cc1 [Compound 26, Methyl 4-(1-(3-chlorobenzyl)-1H-1,2,3-triazol-4-yl)benzoate]
inhibitory potency compared to 8 (NLRP3 inflammasome [1]): ~3–7-fold decrease or complete loss of potency

inhibitory potency compared to 1 (NLRP3 inflammasome [1]): comparable potency
Compound: CCCOc1ccc(Cl)cc1Cn1cc(-c2ccc(S(N)(=O)=O)cc2)nn1 [Compound 2, 4-(1-(5-chloro-2-propoxybenzyl)-1H-1,2,3-triazol-4-yl)benzenesulfonamide]

Compound: CNS(=O)(=O)c1ccc(CCNC(=O)c2cc(Cl)ccc2OC)cc1 [JC124]
in vivo efficacy (AD animal models): in vivo efficacy | metabolism / metabolic stability in mouse liver microsomes [2]: relatively better metabolic stability

inhibitory potency compared to 8 (NLRP3 inflammasome [1]): comparable potency
Compound: COC(=O)c1ccc(-c2cn(Cc3cc(C(F)(F)F)ccc3OC)nn2)cc1 [Compound 34, Methyl 4-(1-(2-methoxy-5-(trifluoromethyl)benzyl)-1H-1,2,3-triazol-4-yl)benzoate]

inhibitory potency compared to 8 (NLRP3 inflammasome [1]): significantly less potent
Compound: COc1ccc(Cl)cc1Cn1cc(-c2ccc(C(=O)O)cc2)nn1 [Compound 12, 4-(1-(5-chloro-2-methoxybenzyl)-1H-1,2,3-triazol-4-yl)benzoic acid]

decrease in inhibitory potency compared to 8 (NLRP3 inflammasome [1]): ~ 5 fold
Compound: COC(=O)c1ccc(-c2cn(Cc3cc(Cl)ccc3O)nn2)cc1 [Compound 27, Methyl 4-(1-(5-chloro-2-hydroxybenzyl)-1H-1,2,3-triazol-4-yl)benzoate]

lower potency compared to 6 (NLRP3 inflammasome [1]): ~ 10 fold
Compound: CCCOc1ccc(Cl)cc1Cn1cc(-c2ccc(C(=O)O)cc2)nn1 [Compound 7, 4-(1-(5-chloro-2-propoxybenzyl)-1H-1,2,3-triazol-4-yl)benzoic acid]

inhibition of the NLRC4 inflammasome (NLRC4 inflammasome): did not show inhibitory effects | inhibition of the AIM2 inflammasome (AIM2 inflammasome): did not show inhibitory effects
Compound: COC(=O)c1ccc(-c2cn(Cc3cc(Cl)ccc3OC)nn2)cc1 [Compound 8, Methyl 4-(1-(5-chloro-2-methoxybenzyl)-1H-1,2,3-triazol-4-yl)benzoate]

decrease in inhibitory potency compared to 8 (NLRP3 inflammasome [1]): 3–4 fold
Compound: COC(=O)c1ccc(-c2cn(Cc3cc(Cl)ccc3OC)nn2)c(F)c1 [Compound 16, Methyl 4-(1-(5-chloro-2-methoxybenzyl)-1H-1,2,3-triazol-4-yl)-3-fluorobenzoate]

Compound: COC(=O)c1ccc(-c2cn(Cc3ccccc3)nn2)cc1 [Compound 24, Methyl 4-(1-benzyl-1H-1,2,3-triazol-4-yl)benzoate]
inhibitory potency compared to 8 (NLRP3 inflammasome [1]): ~3–7-fold decrease or complete loss of potency

Compound: C#CCNS(=O)(=O)c1ccc(CCN(Cc2cc(Cl)ccc2OCCC)C(=O)Cc2ccsc2)cc1 [YQ128]
metabolism / metabolic stability in mouse liver microsomes [2]: rapid metabolism | Kd [3]: 117 nM | IC50 (NLRP3 inflammasome [4]): 300 ± 10 nM

Compound: COC(=O)c1ccc(-c2cn(Cc3ccccc3OC)nn2)cc1 [Compound 25, Methyl 4-(1-(2-methoxybenzyl)-1H-1,2,3-triazol-4-yl)benzoate]
inhibitory potency compared to 8 (NLRP3 inflammasome [1]): ~3–7-fold decrease or complete loss of potency

decrease in inhibitory potency compared to 8 (NLRP3 inflammasome [1]): 3–4 fold
Compound: COC(=O)c1ccc(-c2cn(Cc3cc(Cl)ccc3OC)nn2)c(C)c1 [Compound 15, Methyl 4-(1-(5-chloro-2-methoxybenzyl)-1H-1,2,3-triazol-4-yl)-3-methylbenzoate]

inhibitory potency compared to 8 (NLRP3 inflammasome [1]): decreased inhibitory potency
Compound: CNC(=O)c1ccc(-c2cn(Cc3cc(Cl)ccc3OC)nn2)cc1 [Compound 13, 4-(1-(5-chloro-2-methoxybenzyl)-1H-1,2,3-triazol-4-yl)-N-methylbenzamide]

decrease in inhibitory potency compared to 8 (NLRP3 inflammasome [1]): 2–3 fold
Compound: COC(=O)c1ccc(-c2cn(Cc3cc(Br)ccc3OC)nn2)cc1 [Compound 33, Methyl 4-(1-(5-bromo-2-methoxybenzyl)-1H-1,2,3-triazol-4-yl)benzoate]

Compound: CCCOc1ccc(Cl)cc1Cn1cc(-c2ccccc2)nn1 [Compound 1, 1-(5-chloro-2-propoxybenzyl)-4-phenyl-1H-1,2,3-triazole]
inhibition of the NLRC4 inflammasome (NLRC4 inflammasome): only observed for the NLRC4 and AIM2 inflammasomes at higher concentrations | interference with the priming by LPS (priming by LPS (TNF-α)): did not show interference | inhibition of the AIM2 inflammasome (AIM2 inflammasome): only observed for the NLRC4 and AIM2 inflammasomes at higher concentrations
